Common to all, as to format: in vivo, human
Series [1] relates to serum cytokines (TNF-α, IFN-α, IL-1RA, IL-6, NPT, 2′5′ AS). The series is described as follows: Single dose cervical application study: PD response by serum analysis for cytokines. Here is the method: (§1) This was a single dose, randomized, double-blind, placebo controlled dose escalation study which evaluated five doses of imiquimod. 50, 100, 150, 200 and 250 mg of imiquimod in a cream formulation were applied to the cervix for eight hours. Each dose group was composed of 8 subjects (6 active and 2 placebo), with two subjects treated as dose leaders, and the remaining six subjects were treated after an acceptable response by the dose leaders. Safety was assessed by adverse events (AE's), laboratory tests, and colposcopy with photodocumentation of the cervix at pre-dose and 24 hours post-dose, and 48 hours post-dose if required. Systemic exposure (PK) was determined by measuring imiquimod and metabolites through 48 hours post-dose and the PD response was determined by serum analysis for the cytokines: tumor necrosis factor-α (TNF-α), interferon-α (IFN-α), interleukin-1 receptor […] (IL-1RA), interleukin-6 (IL-6), neopterin (NPT) and 2′5′ oligoadenlyate synthetase (2′5′ AS) during dosing and selected times during the 48 hours post-dose. Statistical tests to evaluate AE's and demographics, laboratory tests, vital signs and ECG's were Fisher's Exact, Wilcoxon Rank-Sum and Kruskall Wallis Tests respectively. Cytokine changes between dose groups were compared using Wilcoxon Rank-Sum and changes from baseline were evaluated using Spearman Rank Correlation.

The test system of another series is cervix. As to the kind of experiment: Single dose cervical application study: safety (adverse events, pelvic and colposcopic examination). Here is the method:
as §1

The nature of series [2]: Single dose cervical application study: systemic exposure (PK) of imiquimod in serum. Here is the method: as §1
[3] abbreviates: serum, 150 mg, 200 mg and 250 mg groups.
Setting [4] is: single doses up to 250 mg applied to the cervix for 8 hours, healthy volunteers.

Each structure is given as a SMILES string.

Take `CC(C)Cn1cnc2c(N)nc3ccccc3c21` [imiquimod, 1-(2-methylpropyl)-1H-imidazo[4,5-c] quinolin-4-amine]: the “systemic concentration of certain cytokines” value in series [1] (cervical application of a dose ≧150 mg) is listed as “increases”. Further, in series [1] (setting [3]), the “2′5′ AS change from baseline” value was “Significant changes from baseline”, the “IL-1RA change from baseline” value is “Significant changes from baseline” and the “NPT (neopterin) change from baseline” value was “Significant changes from baseline”. In addition, in series [1] (serum, 250 mg group), the “IFN change from baseline” value is “Significant changes from baseline” and the “IL-6 change from baseline” value is reported as “Significant changes from baseline”. Besides, the “time to resolution of cervical reactions” value in the series with cervix (250 mg dose group) is at most 48 h. The “subjects experiencing cervical changes of minor small vesicles or smaller ulcer” value with cervix (250 mg dose group, pelvic and colposcopic examination) is on record as 2 of 6. Besides, in the series with cervix (setting [4]), the overall safety result is “safe”. For the same molecule, the “serum levels of imiquimod” value in series [2] (single dose 50-250 mg imiquimod cream (Formulation A) applied to the cervix for 8 hours, through 48 hours post-dose, quantifiable >5 ng/ml) is at most 5 ng/mL. The systemic exposure result in series [2] (setting [4]) is on record as “minimal systemic exposure”.

Values taken from patent US6706728B2, “Systems and methods for treating a mucosal surface” (3M Innovative Properties Company, priority 1999, dated 2004).
